Measurements taken from US20260217672A1, “BENZAMIDE COMPOUNDS FOR TREATMENT OF BACTERIAL INFECTIONS” (Hoffmann-La Roche Inc., priority 2022, published 2026).
Converted amounts (≈) assume the structure as drawn.

How the values were obtained:
[1] = test system: Escherichia coli ATCC 25922; test: Minimal Inhibitory Concentration (MIC) broth dilution assay; format: cell-based; details: ATCC25922, 20 h, read-out: MIC Escherichia coli ATCC 25922
Procedure: (§1) The antibacterial activity of the compounds of the present invention was evaluated against the commonly used quality control strain Escherichia coli ATCC 25922 and the rifampin-resistant mutant strain Klebsiella pneumonia ATCC 43816. Both were originally derived from human clinical samples and are available from ATCC (American Type Culture Collection). The in vitro potency of compounds to inhibit Escherichia coli (ATCC 25922) and Klebsiella pneumonia (ATCC 43816) growth was assessed by the MIC (Minimal Inhibitory Concentration) broth dilution method. Specifically compound dilutions were prepared from 10 mM DMSO stock solutions as follows: i) serial 2-fold dilution in 20 μL DMSO were prepared in a master plate (Greiner, Cat No: 651201), ii) 180 μL sterile distilled water was added to each aliquot and iii) 10 μL diluted compounds were transferred into a new assay plate (Costar, 3599).
(§2) Vials of each test microorganisms were maintained frozen in the vapor phase of a liquid nitrogen freezer. Single-use frozen vials of the two strains Escherichia coli ATCC 25922 (KWIKSTIK, 0335K) and Klebsiella pneumonia ATCC 43816, with predetermined CFU/mL, were taken out from the freezer, thawed at room temperature, and diluted in Cation-Adjusted Mueller Hinton Broth (CAMHB) to achieve a final inoculum of 5×10^5 CFU/mL. 90 μL bacteria containing broth was dispensed to the assay plate containing the pre-dispensed compound dilutions and mixed by pipetting 5 times.
(§3) Then the assay plates were incubated for 20 hours at 35° C. in ambient air. Following incubation, the MIC ([…]), the lowest concentration of drug that inhibits visible growth of the microorganism was read with the help of a magnification mirror and recorded.

[2] = test system: Klebsiella pneumonia ATCC 43816; test: as above; format: cell-based; details: Klebsiella pneumoniae, ATCC43816, 20 h, read-out: MIC Klebsiella pneumoniae ATCC43816
Procedure: as §1, §2, §3

NCCCNCc1ccc(C(=O)Nc2ccc(S(=O)(=O)N3CCN(c4cc(Br)cc(Cl)n4)CC3)cc2)cc1 [Example 007, 4-[(3-Aminopropylamino)methyl]-N-[4-[4-(4-bromo-6-chloro-2-pyridyl)piperazin-1-yl]sulfonylphenyl]benzamide]
MIC [1]: 0.97 µg/mL (≈ 1.56 µM) | MIC [2]: 0.97 µg/mL (≈ 1.56 µM)

NCCCNCc1ccc(C(=O)Nc2ccc(S(=O)(=O)N3CCN(c4cc(C(F)(F)F)cc(OC5CC5)n4)CC3)cc2)cc1 [Example 009, 4-[(3-Aminopropylamino)methyl]-N-[4-[4-[6-(cyclopropoxy)-4-(trifluoromethyl)-2-pyridyl]piperazin-1-yl]sulfonylphenyl]benzamide]
MIC [1]: 5.4 µg/mL (≈ 8.53 µM) | MIC [2]: 11 µg/mL (≈ 17.4 µM)

CCOc1cc(C(F)(F)F)cc(N2CCN(S(=O)(=O)c3ccc(NC(=O)c4ccc(CNCCCN)cc4)cc3)CC2)n1 [Example 010, 4-[(3-Aminopropylamino)methyl]-N-[4-[4-[6-ethoxy-4-(trifluoromethyl)-2-pyridyl]piperazin-1-yl]sulfonylphenyl]benzamide]
MIC [1]: 5.3 µg/mL (≈ 8.54 µM) | MIC [2]: 11 µg/mL (≈ 17.7 µM)

CCc1cc(C(F)(F)F)cc(N2CCN(S(=O)(=O)c3ccc(NC(=O)c4ccc(CNCCCN)cc4)cc3)CC2)n1 [Example 011, 4-[(3-Aminopropylamino)methyl]-N-[4-[4-[6-ethyl-4-(trifluoromethyl)-2-pyridyl]piperazin-1-yl]sulfonylphenyl]benzamide]
MIC [1]: 3.8 µg/mL (≈ 6.28 µM) | MIC [2]: 7.6 µg/mL (≈ 12.6 µM)

NCCCNCCc1ccc(C(=O)Nc2ccc(S(=O)(=O)N3CCN(c4cc(Cl)c(Cl)cn4)CC3)cc2)cc1 [Example 014, 4-[2-(3-Aminopropylamino)ethyl]-N-[4-[4-(4,5-dichloro-2-pyridyl)piperazin-1-yl]sulfonylphenyl]benzamide]
MIC [1]: 15 µg/mL (≈ 25.4 µM) | MIC [2]: 30 µg/mL (≈ 50.7 µM)

N#Cc1cc(N2CCN(S(=O)(=O)c3ccc(NC(=O)c4ccc(CCNCCCN)cc4)cc3)CC2)nc(C(F)(F)F)c1 [Example 015, 4-[2-(3-Aminopropylamino)ethyl]-N-[4-[4-[4-cyano-6-(trifluoromethyl)-2-pyridyl]piperazin-1-yl]sulfonylphenyl]benzamide]
MIC [1]: 1.9 µg/mL (≈ 3.09 µM) | MIC [2]: 3.8 µg/mL (≈ 6.17 µM)

N#Cc1cc(C(F)(F)F)cc(N2CCN(S(=O)(=O)c3ccc(NC(=O)c4ccc(CCNCCCN)cc4)cc3)CC2)n1 [Example 016, 4-[2-(3-Aminopropylamino)ethyl]-N-[4-[4-[6-cyano-4-(trifluoromethyl)-2-pyridyl]piperazin-1-yl]sulfonylphenyl]benzamide]
MIC [1]: 1.9 µg/mL (≈ 3.09 µM) | MIC [2]: 3.8 µg/mL (≈ 6.17 µM)

CC(F)(F)c1cc(Cl)nc(N2CCN(S(=O)(=O)c3ccc(NC(=O)c4ccc(CCNCCCN)cc4)cc3)CC2)c1 [Example 017, 4-[2-(3-Aminopropylamino)ethyl]-N-[4-[4-[6-chloro-4-(1,1-difluoroethyl)-2-pyridyl]piperazin-1-yl]sulfonylphenyl]benzamide]
MIC [1]: 0.97 µg/mL (≈ 1.56 µM) | MIC [2]: 0.97 µg/mL (≈ 1.56 µM)

Cc1cc(C(F)(F)F)cc(N2CCN(S(=O)(=O)c3ccc(NC(=O)c4cccc(CNCCCN)c4)cc3)CC2)n1 [Example 018, 3-[(3-Aminopropylamino)methyl]-N-[4-[4-[6-methyl-4-(trifluoromethyl)-2-pyridyl]piperazin-1-yl]sulfonylphenyl]benzamide]
MIC [1]: 0.64 µg/mL (≈ 1.08 µM) | MIC [2]: 2.6 µg/mL (≈ 4.4 µM)

COC(=O)c1cc(Cl)nc(N2CCN(S(=O)(=O)c3ccc(NC(=O)c4cccc(CNCCCN)c4)cc3)CC2)c1 [Example 019, Methyl 2-[4-[4-[[3-[(3-aminopropylamino)methyl]benzoyl]amino]phenyl]sulfonylpiperazin-1-yl]-6-chloro-pyridine-4-carboxylate]
MIC [1]: 2.6 µg/mL (≈ 4.33 µM) | MIC [2]: 5.2 µg/mL (≈ 8.65 µM)

CC1CN(c2cc(C(F)(F)F)cc(Cl)n2)CCN1S(=O)(=O)c1ccc(NC(=O)c2cccc(CNCCCN)c2)cc1 (stereo not drawn) [Example 021, 3-[(3-Aminopropylamino)methyl]-N-[4-[4-[6-chloro-4-(trifluoromethyl)-2-pyridyl]-2-methyl-piperazin-1-yl]sulfonylphenyl]benzamide]
MIC [1]: 3.9 µg/mL (≈ 6.24 µM) | MIC [2]: 7.8 µg/mL (≈ 12.5 µM)

CC1CN(S(=O)(=O)c2ccc(NC(=O)c3cccc(CNCCCN)c3)cc2)CCN1c1cc(C(F)(F)F)cc(Cl)n1 (stereo not drawn) [Example 022, 3-[(3-Aminopropylamino)methyl]-N-[4-[4-[6-chloro-4-(trifluoromethyl)-2-pyridyl]-3-methyl-piperazin-1-yl]sulfonylphenyl]benzamide]
MIC [1]: 3.9 µg/mL (≈ 6.24 µM) | MIC [2]: 3.9 µg/mL (≈ 6.24 µM)

NCCCNCc1cccc(C(=O)Nc2ccc(S(=O)(=O)N3CCN(c4cc(C(F)(F)F)cc(Cl)n4)C4CCC43)cc2)c1 (stereo not drawn) [Example 023, 3-[(3-Aminopropylamino)methyl]-N-[4-[[5-[6-chloro-4-(trifluoromethyl)-2-pyridyl]-2,5-diazabicyclo[4.2.0]octan-2-yl]sulfonyl]phenyl]benzamide]
MIC [1]: 4.2 µg/mL (≈ 6.59 µM) | MIC [2]: 4.2 µg/mL (≈ 6.59 µM)

NCCCNCc1cccc(C(=O)Nc2ccc(S(=O)(=O)N3CCN(c4cc(C(F)(F)F)cc(Cl)n4)CC3)cc2)c1 [Example 024, 3-[(3-Aminopropylamino)methyl]-N-[4-[4-[6-chloro-4-(trifluoromethyl)-2-pyridyl]piperazin-1-yl]sulfonylphenyl]benzamide]
MIC [1]: 0.48 µg/mL (≈ 0.785 µM) | MIC [2]: 0.96 µg/mL (≈ 1.57 µM)

N#CN=S(=O)(c1ccc(NC(=O)c2cccc(CCNCCCN)c2)cc1)N1CCN(c2cc(C(F)(F)F)cc(Cl)n2)CC1 (stereo not drawn) [Example 025, 3-[2-(3-Aminopropylamino)ethyl]-N-[4-[S-[4-[6-chloro-4-(trifluoromethyl)-2-pyridyl]piperazin-1-yl]-N-cyano-sulfonimidoyl]phenyl]benzamide]
MIC [1]: 1.3 µg/mL (≈ 2 µM) | MIC [2]: 5.1 µg/mL (≈ 7.86 µM)

CN=S(=O)(c1ccc(NC(=O)c2cccc(CNCCCN)c2)cc1)N1CCN(c2cc(C(F)(F)F)cc(Cl)n2)CC1 (stereo not drawn) [Example 026, 3-[(3-aminopropylamino)methyl]-N-[4-[S-[4-[6-chloro-4-(trifluoromethyl)-2-pyridyl]piperazin-1-yl]-N-methyl-sulfonimidoyl]phenyl]benzamide]
MIC [1]: 3.9 µg/mL (≈ 6.25 µM) | MIC [2]: 7.8 µg/mL (≈ 12.5 µM)

COc1cc(NC(=O)c2cccc(CNCCCN)c2)ccc1S(=O)(=O)N1CCN(c2cc(C(F)(F)F)cc(Cl)n2)CC1 [Example 027, 3-[(3-Aminopropylamino)methyl]-N-[4-[4-[6-chloro-4-(trifluoromethyl)-2-pyridyl]piperazin-1-yl]sulfonyl-3-methoxy-phenyl]benzamide]
MIC [1]: 4 µg/mL (≈ 6.24 µM) | MIC [2]: 4 µg/mL (≈ 6.24 µM)

NCCCNCc1cccc(C(=O)Nc2ccc(S(=O)(=O)N3CCN(c4cc(C(F)(F)F)cc(Cl)n4)CC3)c(O)c2)c1 [Example 028, 3-[(3-Aminopropylamino)methyl]-N-[4-[4-[6-chloro-4-(trifluoromethyl)-2-pyridyl]piperazin-1-yl]sulfonyl-3-hydroxy-phenyl]benzamide]
MIC [1]: 4.6 µg/mL (≈ 7.34 µM) | MIC [2]: 9.3 µg/mL (≈ 14.8 µM)

NCCCNCc1ccc(C(=O)Nc2ccc(S(=O)(=O)N3CCN(c4cc(C(F)(F)F)cc(Cl)n4)CC3)cn2)cc1 [Example 029, 4-[(3-Aminopropylamino)methyl]-N-[5-[4-[6-chloro-4-(trifluoromethyl)-2-pyridyl]piperazin-1-yl]sulfonyl-2-pyridyl]benzamide]
MIC [1]: 1.9 µg/mL (≈ 3.1 µM) | MIC [2]: 3.8 µg/mL (≈ 6.21 µM)

COc1cc(S(=O)(=O)N2CCN(c3cc(C(F)(F)F)cc(Cl)n3)CC2)ccc1NC(=O)c1cccc(CNCCCN)c1 [Example 030, 3-[(3-Aminopropylamino)methyl]-N-[4-[4-[6-chloro-4-(trifluoromethyl)-2-pyridyl]piperazin-1-yl]sulfonyl-2-methoxy-phenyl]benzamide]
MIC [1]: 4 µg/mL (≈ 6.24 µM) | MIC [2]: 8 µg/mL (≈ 12.5 µM)

NCCCNCc1cccc(C(=O)Nc2ccc(S(=O)(=O)N3CCN(c4cc(C(F)(F)F)cc(Cl)n4)CC3)cc2O)c1 [Example 031, 3-[(3-Aminopropylamino)methyl]-N-[4-[4-[6-chloro-4-(trifluoromethyl)-2-pyridyl]piperazin-1-yl]sulfonyl-2-hydroxy-phenyl]benzamide]
MIC [1]: 3.9 µg/mL (≈ 6.22 µM) | MIC [2]: 3.9 µg/mL (≈ 6.22 µM)

Cn1cc2c(n1)CN(C(=O)Nc1ccc(S(=O)(=O)N3CCN(c4cc(C(F)(F)F)cc(Cl)n4)CC3)cc1)C2 [Example 032, N-[4-[4-[6-chloro-4-(trifluoromethyl)-2-pyridyl]piperazin-1-yl]sulfonylphenyl]-2-methyl-4,6-dihydropyrrolo[3,4-c]pyrazole-5-carboxamide]
MIC [1]: 7.1 µg/mL (≈ 12.5 µM) | MIC [2]: 7.1 µg/mL (≈ 12.5 µM)

Cn1ncc2c1CN(C(=O)Nc1ccc(S(=O)(=O)N3CCN(c4cc(C(F)(F)F)cc(Cl)n4)CC3)cc1)C2 [Example 033, N-[4-[4-[6-chloro-4-(trifluoromethyl)-2-pyridyl]piperazin-1-yl]sulfonylphenyl]-1-methyl-4,6-dihydropyrrolo[3,4-c]pyrazole-5-carboxamide]
MIC [1]: 3.6 µg/mL (≈ 6.32 µM) | MIC [2]: 3.6 µg/mL (≈ 6.32 µM)

Cn1ncc(C(=O)N2CCc3cc(S(=O)(=O)N4CCN(c5cc(C(F)(F)F)cc(Cl)n5)CC4)ccc32)c1C(=O)O [Example 035, 4-[5-[4-[6-Chloro-4-(trifluoromethyl)-2-pyridyl]piperazin-1-yl]sulfonylindoline-1-carbonyl]-2-methyl-pyrazole-3-carboxylic acid]
MIC [1]: 3.7 µg/mL (≈ 6.18 µM) | MIC [2]: 7.5 µg/mL (≈ 12.5 µM)
